Legend:
A549 = experiment: Cytotoxicity against human A549 cells after 72 hrs by MTT assay; type: functional, cell-based; conditions: A549, 72 h
HCT-116 = experiment: Cytotoxicity against human HCT116 cells after 72 hrs by MTT assay; type: functional, cell-based; conditions: HCT-116, 72 h
Mus musculus = experiment: Toxicity in human A549 cells xenografted BALB/C mouse assessed as change in body weight at 0.5 mg/kg, ip for 5 days; type: organism-based; conditions: in vivo, 120 h
MDA-MB-435 = experiment: Cytotoxicity against human MDA-MB-435 cells after 72 hrs by MTT assay; type: functional, cell-based; conditions: MDA-MB-435, 72 h

CC[C@@]1(O)C(=O)OCc2c1cc1n(c2=O)Cc2cc3c(CN(C)C)c(O)ccc3nc2-1 [TOPOTECAN]
IC50 (A549): 7.4 µM | IC50 (HCT-116): 0.7 µM | Activity (Mus musculus): Toxic | IC50 (MDA-MB-435): 0.4 µM

Reference: ChEMBL document CHEMBL3600310 (J Med Chem, 2015)
